Laboratory results as given in patent US8088818B2, “Catechol-based derivatives for treating or preventing diabetics” (National Taiwan University, priority 2006, dated 2012).

Key:
[1] = system: coronary artery; assay: Flow rate of the coronary artery in the isolated perfused rat heart (Langendorff); settings: for effect on coronary flow rate (in words): Wistar rats, Tables 15 and 16; for coronary flow: isolated Wistar rat heart
Protocol: Each of the male Wistar rats weighs about 200-250 grams, and is anesthetized with 25 mg/kg pentobarbital and 16 mg/kg heparin by injecting into the abdominal cavity. After falling asleep, separate the cervical vertebra and immediately take the heart out hanging on the constant pouring pressure circulation instrument (Langendorff, AD Instruments Pty Ltd, ML870B2) and fill a 37[…] pouring solution of 95% of oxygen and 5% of carbon dioxide with the artery (119.7 mM NaCl, 23.8 mM NaHCO3, 5.6 mM glucose, 1.2 mM CaCl2, 1.1 mM MgCl2, 0.3 mM NaH2PO4, and 5.0 mM KCl), which washes the heart and clean out the blood water by pouring in a reverse direction. The rate of the reverse pouring is 10 ml/min, followed by maintaining the pouring pressure of the coronary artery at 80 mmHg. After balancing for thirty minutes, measure the rate of the pouring solution flowing in the heart, and observe the change of the rate the pouring solution flowing in the heart while the testing drug is added.

[2] = literature; cited from earlier work
[3] = system: Normal rats; assay: Blood sugar lowering in normal rats after oral administration; format: in vivo, rat; settings: 0.5 mg/kg oral; for % decrease in plasma glucose: Table 14; for Pre-treatment Plasma glucose: pre-treatment (baseline)
Protocol: (a) Male Wistar rats are provided from the National Laboratory Animal Breeding and Research Center (Taipei, Taiwan), each of whose weight is about 200-250 grams, and the average age thereof is above 8 weeks. They were housed under conditions of constant temperature (25±1[…]) and controlled illumination (light time and dark time are respectively 12 hours). Food and water were available.
(§1) (d) The administration: Dissolve the medicine equivalently in deionized water, and then administrate the mentioned solution into the normal and diabetic rats by an orally perfusion. Keep with the desired concentration of the perfusion amount by taking suitable amount of the medicine solution according to the weight of the different animal.
(§2) The rats to be experimented should undergo a starvation for 8-12 hours overnight. Next day, the rats are anesthetized with 30 mg/kg pentobarbital by injecting into the abdominal cavity. After the rats fall asleep, fix the rats on the board with the rubber band. Open the groin, find the veins, bleed 0.1 ml blood from an empty stomach, and then feed the medicine into the body of the rats by taking orally. After 90 minutes, bleed and perform a centrifugation (13,000 rpm, 5 minutes) to separate the serum and the plasma. Take the 10 μl supernatant of the serum and add 1 ml reagent of the glucose kit thereinto by gently mixing. React for 5 minutes at 37 °C, followed by detecting the value of the blood sugar by means of BST330 based on the different absorption level. […] The value of the blood sugar (mg/dL) is calculated by comparing the level of redness with contrasting the standard curve.
(§3) (The value of blood sugar at postadministration)−(The value of blood sugar at preadministration)/(The value of blood sugar at preadministration)×100%
The results of the experiments are presented in the average value±the standard error (mean±SE), and the variations therebetween are evaluated according to the Student's t-test, while the variations thereamong are evaluated according to one-way ANOVA and Bonferroni's t-test, wherein P<0.05 is deemed to have apparent differences.

[4] = system: Type 2 diabetic rats; assay: Blood sugar lowering in insulin-induced type 2 diabetic rats after oral administration; format: in vivo, rat; settings: type II diabetic rats, 1 mg/kg, p.o., 90 minutes
Protocol: (c) Insulin-induced type 2 diabetic rats: the abdominal cavity of the male Wistar rats of 12 weeks age are injected with 0.5 IU/kg long-term insulin (MonotardR HM) three times a day for fourteen days. Then, the 10 mg/kg tolbutamide, an anti-diabetic drug of sulfonylurea class, is injected into the abdominal cavity. Phlebotomize 0.1 ml blood respectively at the preadministration and the postadministration of sixty minutes, and calculate the reduced value of the blood sugar. If the variation of the ability of lowering blood sugar is less than 10%, which is deemed as the type II (insulin resistance) diabetes rat.
as §1, §2, §3

Row | Compound | effect on coronary flow rate (in words) [1] | coronary flow ([1]; conc. 0 (baseline)) [mL/min] | coronary flow ([1]; conc. 0.1 (unit printed .[…]M)) [mL/min] | coronary flow ([1]; conc. 0.3 (unit printed .[…]M)) [mL/min] | coronary flow ([1]; conc. 1 (unit printed .[…]M)) [mL/min] | coronary flow ([1]; conc. 3 (unit printed .[…]M)) [mL/min] | coronary flow ([1]; conc. 10 (unit printed .[…]M)) [mL/min] | % decrease in plasma glucose [3] [%] | Post-treatment Plasma glucose [3] [mg/dL] | Pre-treatment Plasma glucose [3] [mg/dL] | further results
1 | O=C(C=Cc1ccc(O)c(O)c1)NCc1cccc(F)c1 [Compound 638I] | capable of increasing the coronary flow rate | 7.4 ± 0.7 | 7.1 ± 0.5 | 7.1 ± 0.5 | 7.6 ± 0.8 | 8.2 ± 0.8 | 9.3 ± 0.7 |  |  |  | 
2 | COc1cc(/C=C/C(=O)NCCc2ccccc2)ccc1O [Compound 640] | capable of increasing the coronary flow rate | 9.7 ± 1.3 | 10.1 ± 1.5 | 10.2 ± 1.4 | 10.3 ± 1.5 | 11.0 ± 1.5 | 14.6 ± 2.2 |  |  |  | 
3 | COc1cc(CNC(=O)CCCC/C=C/C(C)C)ccc1O [capsaicin] |  |  |  |  |  |  |  |  |  |  | lowering blood sugar (earlier studies) [2]: effective in lowering blood sugar
4 | O=C(O)/C=C/c1ccc(O)c(O)c1 [caffeic acid] |  |  |  |  |  |  |  |  |  |  | lowering blood sugar (earlier studies) [2]: effective in lowering blood sugar
5 | O=C(C=Cc1ccc(O)c(O)c1)NCCc1ccc(Br)cc1 [638 B] |  |  |  |  |  |  |  | 21.4 ± 3.0 | 76.8 ± 4.1 | 98.1 ± 5.2 | 
6 | CC(=O)Oc1ccc(C=CC(=O)NCCc2ccccc2)cc1OC(C)=O [639 B] | capable of increasing the coronary flow rate | 7.4 ± 0.2 |  |  | 9.0 ± 0.4 | 11.6 ± 0.6 |  | 28.1 ± 3.3 | 84.0 ± 5.0 | 116.7 ± 2.8 | 
7 | O=C(/C=C/c1ccc2c(c1)OCO2)NCCc1ccccc1 [615 (37)] |  |  |  |  |  |  |  | 23.9 ± 2.1 | 105.2 ± 3.5 | 138.3 ± 4.1 | 
8 | CCCCNC(=O)C=Cc1ccc2c(c1)OCO2 |  |  |  |  |  |  |  |  |  |  | melting point: 82 to 83 °C
9 | CN(Cc1ccccc1)C(=O)C=Cc1ccc(O)c(O)c1 [Compound 642A] | capable of increasing the coronary flow rate | 10.0 ± 0.7 | 12.9 ± 0.4 | 14.2 ± 0.8 | 16.8 ± 1.6 | 19.8 ± 2.1 |  |  |  |  | 
10 | O=C(C=Cc1ccc(O)c(O)c1)Nc1ccc(O)cc1 [Compound 638H] |  | 9.0 ± 0.3 | 9.0 ± 0.5 | 8.9 ± 0.5 | 9.1 ± 0.5 | 10.1 ± 0.7 | 13.1 ± 1.0 |  |  |  | 
11 | COc1ccc(CCNC(=O)C=Cc2ccc(O)c(O)c2)cc1OC [638 A] |  |  |  |  |  |  |  | 18.1 ± 2.9 | 83.6 ± 1.9 | 102.5 ± 2.4 | 
12 | CN(CCc1ccccc1)C(=O)C=Cc1ccc(O)c(O)c1 [Compound 642B] | capable of increasing the coronary flow rate | 9.8 ± 2.1 | 9.8 ± 2.1 | 10.4 ± 1.7 | 12.8 ± 1.9 | 17.4 ± 1.9 | 23.2 ± 1.7 |  |  |  | 
13 | CN(CCOc1ccc(CC2SC(=O)NC2=O)cc1)c1ccccn1 (centres unmarked) [Rosiglitazone, reference compound] |  |  |  |  |  |  |  |  |  |  | % decrease in plasma glucose [4]: 15.6 ± 6.3%
